The structures appear in SMILES notation.

Experimental findings from patent US12077503B2, “Substituted cyclic amides and their use as herbicides” (FMC CORPORATION, priority 2015, dated 2024) are described below.

Holding throughout (type): in vivo
The test system of one assay is rice (Oryra sativa). The experiment in a line: Test B flooded paddy test. As to conditions: Oryza sativa, Flood, 250 g ai/ha; scale of 0 to 100 where 0 is no effect and 100 is complete control; read-out: Rice plant response rating. In outline: (§1)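 Compound goes directly into floodwater once pots are flooded 3 cm above soil, targeting plants at two leaves; the water depth is then held for the test duration. Plants sit 13–15 d in a greenhouse and are rated visually, 100 denoting complete control.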

In assay [1] the test system is ducksalad (Heteranthera limosa). The experiment in a line: Test B flooded paddy test. As to conditions: Heteranthera limosa, Flood, 250 g ai/ha; scale of 0 to 100 where 0 is no effect and 100 is complete control; read-out: Ducksalad plant response rating. Summed up: as §1
Assay [2] concerns sedge, umbrella (small-flower umbrella sedge, Cyperus difformis). The experiment in a line: Test B flooded paddy test. Conditions: Cyperus difformis, Flood, 250 g ai/ha; scale of 0 to 100 where 0 is no effect and 100 is complete control; read-out: Sedge, Umbrella plant response rating. In outline:
as §1

In assay [3] the test system is barnyardgrass (Echinochloa crus-galli). The experiment in a line: Test B flooded paddy test. As to conditions: Echinochloa crus-galli, Flood, 250 g ai/ha; scale of 0 to 100 where 0 is no effect and 100 is complete control; read-out: Barnyardgrass plant response rating. In outline: as §1
For assay [4], the system named is wheat (Triticum aestivum). The experiment in a line: Test A postemergence. Conditions: Triticum aestivum, post-emergence, 240 h; for plant injury at 125 g/ha: 125 g ai/ha, postemergence, visual injury rating after approximately 10 d, read-out: Wheat plant response rating (0 to 100 scale, 0 no effect, 100 complete control); for plant injury at 31 g/ha: Postemergence, 31 g ai/ha, visual injury after approx. 10 d, 0 to 100 scale, 0 no effect, 100 complete control, read-out: Plant response rating, Wheat. Summed up: (§2)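 Each rating is a visual injury score from 0 to 100 given about 10 d after treatment, judged against untreated controls kept alongside in the greenhouse. In loam soil–sand blend, seeds got a preemergence directed soil spray, while postemergence plants were 2 to 10 cm tall at spraying.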

The subject of assay [5] is ryegrass, Italian (Italian ryegrass, Lolium multiflorum). The experiment in a line: Test A postemergence. Conditions: Lolium multiflorum, post-emergence, 240 h; for pest or weed control at 125 g/ha: 125 g ai/ha, postemergence, visual injury rating after approximately 10 d, read-out: Ryegrass, Italian plant response rating (0 to 100 scale, 0 no effect, 100 complete control); for pest or weed control at 31 g/ha: Postemergence, 31 g ai/ha, visual injury after approx. 10 d, 0 to 100 scale, 0 no effect, 100 complete control, read-out: Plant response rating, Ryegrass, Italian. Summed up: as §2

In the next assay the test system is corn (Zea mays). The experiment in a line: Test A postemergence. Conditions: Zea mays, post-emergence, 240 h; for plant injury at 125 g/ha: 125 g ai/ha, postemergence, visual injury rating after approximately 10 d, read-out: Corn plant response rating (0 to 100 scale, 0 no effect, 100 complete control); for Corn plant response rating (crop injury, 0 = no effect, 100 = complete kill) at 31 g/ha: Postemergence, 31 g ai/ha, visual injury after approx. 10 d, 0 to 100 scale, 100 complete control. In outline: as §2

Assay [6] relates to blackgrass (Alopecurus myosuroides). The experiment in a line: Test A postemergence. Conditions: Alopecurus myosuroides, post-emergence, 240 h; for pest or weed control at 125 g/ha: 125 g ai/ha, postemergence, visual injury rating after approximately 10 d, read-out: Blackgrass plant response rating (0 to 100 scale, 0 no effect, 100 complete control); for pest or weed control at 31 g/ha: Postemergence, 31 g ai/ha, visual injury after approx. 10 d, 0 to 100 scale, 0 no effect, 100 complete control, read-out: Plant response rating, Blackgrass. In outline: as §2

The test system of assay [7] is Galium (catchweed bedstraw, Galium aparine). The experiment in a line: Test A postemergence. Conditions: Galium, post-emergence, 240 h; for pest or weed control at 125 g/ha: 125 g ai/ha, postemergence, visual injury rating after approximately 10 d, read-out: Galium plant response rating (0 to 100 scale, 0 no effect, 100 complete control); for pest or weed control at 31 g/ha: Postemergence, 31 g ai/ha, visual injury after approx. 10 d, 0 to 100 scale, 0 no effect, 100 complete control, read-out: Plant response rating, Galium. Summed up: as §2

Another assay has as its system Kochia (Kochia scoparia). The experiment in a line: Test A postemergence. Conditions: Bassia scoparia, post-emergence, 240 h; for pest or weed control at 125 g/ha: 125 g ai/ha, postemergence, visual injury rating after approximately 10 d, read-out: Kochia plant response rating (0 to 100 scale, 0 no effect, 100 complete control); for pest or weed control at 31 g/ha: Postemergence, 31 g ai/ha, visual injury after approx. 10 d, 0 to 100 scale, 0 no effect, 100 complete control, read-out: Plant response rating, Kochia. In outline:
as §2

Assay [8] concerns pigweed (Amaranthus retroflexus). The experiment in a line: Test A postemergence. As to conditions: Amaranthus retroflexus, post-emergence, 240 h; for pest or weed control at 125 g/ha: 125 g ai/ha, postemergence, visual injury rating after approximately 10 d, read-out: Pigweed plant response rating (0 to 100 scale, 0 no effect, 100 complete control); for pest or weed control at 31 g/ha: Postemergence, 31 g ai/ha, visual injury after approx. 10 d, 0 to 100 scale, 0 no effect, 100 complete control, read-out: Plant response rating, Pigweed. Summed up: as §2

The subject of assay [9] is giant foxtail (Setaria faberii). The experiment in a line: Test A postemergence. As to conditions: Setaria faberi, post-emergence, 240 h; for pest or weed control at 125 g/ha: 125 g ai/ha, postemergence, visual injury rating after approximately 10 d, read-out: Foxtail, Giant plant response rating (0 to 100 scale, 0 no effect, 100 complete control); for pest or weed control at 31 g/ha: Postemergence, 31 g ai/ha, visual injury after approx. 10 d, 0 to 100 scale, 0 no effect, 100 complete control, read-out: Plant response rating, Foxtail, Giant. In outline:
as §2

Assay [10] relates to ragweed (common ragweed, Ambrosia elatior). The experiment in a line: Test A postemergence. Conditions: Ambrosia artemisiifolia, post-emergence, 240 h; for pest or weed control at 125 g/ha: 125 g ai/ha, postemergence, visual injury rating after approximately 10 d, read-out: Ragweed plant response rating (0 to 100 scale, 0 no effect, 100 complete control); for pest or weed control at 31 g/ha: Postemergence, 31 g ai/ha, visual injury after approx. 10 d, 0 to 100 scale, 0 no effect, 100 complete control, read-out: Plant response rating, Ragweed. In outline: as §2

Assay [11] has as its system barnyardgrass (Echinochloa crus-galli). The experiment in a line: Test A postemergence. Conditions: Echinochloa crus-galli, post-emergence, 240 h; for pest or weed control at 125 g/ha: 125 g ai/ha, postemergence, visual injury rating after approximately 10 d, read-out: Barnyardgrass plant response rating (0 to 100 scale, 0 no effect, 100 complete control); for pest or weed control at 31 g/ha: Postemergence, 31 g ai/ha, visual injury after approx. 10 d, 0 to 100 scale, 0 no effect, 100 complete control, read-out: Plant response rating, Barnyardgrass. Summed up:
as §2

For `CN1CC[C@H](c2cccc(OC(F)(F)F)c2)[C@@H](C(=O)Nc2ccccc2C(F)(F)F)C1=O` [Compound 806], the pest or weed control at 250 g/ha was determined as 0% in the assay on rice (Oryra sativa), 75% in assay [1], 0% in assay [2] and 0% in assay [3]. In addition, the plant injury at 125 g/ha (in [4]; in the assay with corn (Zea mays)) was 0% throughout. Also, the plant injury at 31 g/ha in assay [4] amounted to 0%. In addition, the pest or weed control at 125 g/ha (in assay [5]; in [6]; in assay [7]; in the assay with Kochia (Kochia scoparia); in assay [8]; in assay [9]) was 0% each time. Further, the pest or weed control at 125 g/ha in assay [10] and in assay [11] was 0% in each case. Also, the pest or weed control at 31 g/ha (in [5]; in assay [6]; in [7]; in the assay with Kochia (Kochia scoparia); in assay [8]; in assay [9]) was 0% each time. In addition, the pest or weed control at 31 g/ha in [10] and in assay [11] was 0% throughout. This compound also came in with a Corn plant response rating (crop injury, 0 = no effect, 100 = complete kill) at 31 g/ha in the assay on corn (Zea mays) of 0%.
With `CN1CC[C@H](c2cccc(OC(F)(F)F)c2)[C@@H](C(=O)Nc2ccc(F)c(F)c2F)C1=O` [Compound 808], the pest or weed control at 250 g/ha amounted to 15% in the assay on rice (Oryra sativa), 100% in [1], 0% in assay [2] and 70% in assay [3]. For the same compound, the plant injury at 125 g/ha (in [4]; with corn (Zea mays)) was 0% each time. In assay [4], the plant injury at 31 g/ha was determined as 0%. In addition, the pest or weed control at 125 g/ha in [5] amounted to 0%; in assay [6], 0%; in [7], 0%; in the assay on Kochia (Kochia scoparia) it was 0%; in [8] it was 0%; in assay [9], 80%. For the same compound, the pest or weed control at 125 g/ha in assay [10] was determined as 0%; in [11] it was 70%. For the same compound, the pest or weed control at 31 g/ha was determined as 0% in assay [5]; 0% in assay [6]; 0% in assay [7]; 0% with Kochia (Kochia scoparia); 0% in assay [8]; 70% in assay [9]. The pest or weed control at 31 g/ha amounted to 0% in [10] and 50% in assay [11]. In addition, the Corn plant response rating (crop injury, 0 = no effect, 100 = complete kill) at 31 g/ha in the assay with corn (Zea mays) is 0%.
As to `CSc1ccccc1NC(=O)[C@H]1C(=O)N(C)CC[C@@H]1c1cccc(OC(F)(F)F)c1` [Compound 809], the pest or weed control at 250 g/ha (with rice (Oryra sativa); in [1]; in assay [2]; in assay [3]) was 0% in each case. The plant injury at 125 g/ha (in [4]; in the assay with corn (Zea mays)) was 0% each time. Further, the plant injury at 31 g/ha in [4] came to 0%. The pest or weed control at 125 g/ha (in assay [5]; in [6]; in assay [7]; in the assay on Kochia (Kochia scoparia); in assay [8]; in [9]) was 0% throughout. The pest or weed control at 125 g/ha in [10] and in assay [11] was 0% in each case. Moreover, the pest or weed control at 31 g/ha (in [5]; in assay [6]; in assay [7]; in the assay with Kochia (Kochia scoparia); in [8]; in assay [9]) was 0% in each case. Besides, the pest or weed control at 31 g/ha in [10] and in assay [11] was 0% each time. The compound also gave a Corn plant response rating (crop injury, 0 = no effect, 100 = complete kill) at 31 g/ha in the assay on corn (Zea mays) of 0%.
`CN1CC[C@H](c2ccc3c(c2)OC(F)(F)O3)[C@@H](C(=O)Nc2ccccc2C(F)(F)F)C1=O` [Compound 811]: the pest or weed control at 250 g/ha worked out at 0% in the assay with rice (Oryra sativa), 40% in assay [1], 40% in [2] and 20% in assay [3]. For the same compound, the plant injury at 125 g/ha (in assay [4]; in the assay with corn (Zea mays)) was 0% each time. The plant injury at 31 g/ha in [4] came out at 0%. For the same compound, the pest or weed control at 125 g/ha in assay [5] was found to be 0%; in [6] it was 0%; in assay [7] it was 0%; in the assay with Kochia (Kochia scoparia), 0%; in [8], 0%; in assay [9] it was 60%. Also, the pest or weed control at 125 g/ha in assay [10] stood at 0%; in assay [11], 40%. Further, the pest or weed control at 31 g/ha (in assay [5]; in assay [6]; in assay [7]; with Kochia (Kochia scoparia); in assay [8]; in assay [9]) was 0% in each case. Also, the pest or weed control at 31 g/ha in assay [10] and in [11] was 0% throughout. This compound also displayed a Corn plant response rating (crop injury, 0 = no effect, 100 = complete kill) at 31 g/ha in the assay with corn (Zea mays) of 0%.
